According to PubChem BioAssay (NCI):
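Five compound concentrations were applied to cells in 96-well plates for 48 hours; endpoints were derived by simple linear interpolation of the resulting dose-response curve. At the GI50, growth is halved. TGI: concentration producing complete growth inhibition.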

Key:
Experiment in all cases: growth of human tumour cells (NCI), 48 h
[1] = system: 786-0 renal
[2] = system: A498 renal
[3] = system: A549 NSCLC
[4] = system: ACHN renal
[5] = system: BT-549 breast
[6] = system: CAKI-1 renal
[7] = system: CCRF-CEM leukemia
[8] = system: COLO 205 colon
[9] = system: DU-145 prostate
[10] = system: EKVX NSCLC
[11] = system: HCC-2998 colon
[12] = system: HCT-116 colon
[13] = system: HCT-15 colon
[14] = system: HL-60(TB) leukemia
[15] = system: HOP-62 NSCLC
[16] = system: HOP-92 NSCLC
[17] = system: HS 578T breast
[18] = system: HT29 colon
[19] = system: IGROV1 ovarian
[20] = system: K-562 leukemia
[21] = system: KM12 colon
[22] = system: LOX IMVI melanoma
[23] = system: M14 melanoma
[24] = system: MALME-3M melanoma
[25] = system: MCF7 breast
[26] = system: MDA-MB-231 breast
[27] = system: MDA-MB-435
[28] = system: MOLT-4 leukemia
[29] = system: NCI-H226 lung
[30] = system: NCI-H23 lung
[31] = system: NCI-H460 lung
[32] = system: NCI-H522 lung
[33] = system: NCI/ADR-RES ovarian
[34] = system: OVCAR-3 ovarian
[35] = system: OVCAR-4 ovarian
[36] = system: OVCAR-5 ovarian
[37] = system: OVCAR-8 ovarian
[38] = system: PC-3 prostate
[39] = system: RPMI-8226 leukemia
[40] = system: RXF 393 renal
[41] = system: SF-268 CNS
[42] = system: SF-295 CNS
[43] = system: SF-539 CNS
[44] = system: SK-MEL-2 melanoma
[45] = system: SK-MEL-28 melanoma
[46] = system: SK-MEL-5 melanoma
[47] = system: SK-OV-3 ovarian
[48] = system: SN12C renal
[49] = system: SNB-19 CNS
[50] = system: SNB-75 CNS
[51] = system: SR leukemia
[52] = system: SW-620 colon
[53] = system: T-47D breast
[54] = system: TK-10 renal
[55] = system: U251 CNS
[56] = system: UACC-257 melanoma
[57] = system: UACC-62 melanoma
[58] = system: UO-31 renal

`Fc1ccc(-c2nn3ncccc3c2-c2ccnc(Nc3ccc4c(c3)OCCO4)n2)cc1` was tested, and the GI50 [1] was 2.29 µM, the TGI [1] was > 25 µM and the GI50 [2] was 4.04 µM. The TGI [2] was 17.1 µM, the GI50 [3] was 2.71 µM and the TGI [3] was > 25 µM. For the same molecule, the GI50 [4] was 1.16 µM, the TGI [4] was > 25 µM and the GI50 [5] was 7.87 µM. The TGI [5] was 24.9 µM, the GI50 [6] was 0.891 µM and the TGI [6] was > 17.2 µM. The GI50 [7] was 6.22 µM, the TGI [7] was > 25 µM and the GI50 [8] was 1.42 µM. The TGI [8] was > 25 µM, the GI50 [9] was 6.26 µM and the TGI [9] was > 25 µM. For the same molecule, the GI50 [10] was 2.16 µM, the TGI [10] was > 25 µM and the GI50 [11] was 4.81 µM. It also gave a TGI [11] of 10.1 µM, a GI50 [12] of 3.05 µM and a TGI [12] of 7.09 µM. For the same molecule, the GI50 [13] was 3.59 µM, the TGI [13] was 19.4 µM and the GI50 [14] was 5.01 µM. For the same molecule, the TGI [14] was 13.8 µM, the GI50 [15] was 15.2 µM and the TGI [15] was > 25 µM. It also gave a GI50 [16] of 2.61 µM, a TGI [16] of 18.8 µM and a GI50 [17] of 2.15 µM. For the same molecule, the TGI [17] was > 23.2 µM, the GI50 [18] was 0.933 µM and the TGI [18] was > 13.6 µM. The GI50 [19] was 0.595 µM, the TGI [19] was > 11.5 µM and the GI50 [20] was 2.68 µM. The TGI [20] was > 25 µM, the GI50 [21] was 5.32 µM and the TGI [21] was 19.8 µM. The GI50 [22] was 3.38 µM, the TGI [22] was 13.7 µM and the GI50 [23] was 7.81 µM. The TGI [23] was > 25 µM, the GI50 [24] was 14.1 µM and the TGI [24] was > 25 µM. The GI50 [25] was 2.79 µM, the TGI [25] was > 25 µM and the GI50 [26] was 1.22 µM. The TGI [26] was 6.01 µM, the GI50 [27] was 4.9 µM and the TGI [27] was > 21.5 µM. For the same molecule, the GI50 [28] was 4.8 µM, the TGI [28] was > 22.4 µM and the GI50 [29] was 5.76 µM. For the same molecule, the TGI [29] was > 18.9 µM, the GI50 [30] was 6.8 µM and the TGI [30] was > 25 µM. The GI50 [31] was 5.64 µM, the TGI [31] was > 23.3 µM and the GI50 [32] was 3.56 µM. For the same molecule, the TGI [32] was 10.7 µM, the GI50 [33] was 5.73 µM and the TGI [33] was > 25 µM. For the same molecule, the GI50 [34] was 2.12 µM, the TGI [34] was > 16.2 µM and the GI50 [35] was 6.89 µM. For the same molecule, the TGI [35] was > 25 µM, the GI50 [36] was 14 µM and the TGI [36] was > 25 µM. The GI50 [37] was 6.15 µM, the TGI [37] was > 25 µM and the GI50 [38] was 7.32 µM. The TGI [38] was > 25 µM, the GI50 [39] was 7.85 µM and the TGI [39] was > 25 µM. For the same molecule, the GI50 [40] was 1.07 µM, the TGI [40] was 7.22 µM and the GI50 [41] was 7.36 µM. The TGI [41] was > 25 µM, the GI50 [42] was 6.35 µM and the TGI [42] was 18.6 µM. For the same molecule, the GI50 [43] was 6.59 µM, the TGI [43] was > 25 µM and the GI50 [44] was 4.45 µM. The TGI [44] was 9.71 µM, the GI50 [45] was 8.64 µM and the TGI [45] was > 25 µM. The GI50 [46] was 3.99 µM, the TGI [46] was 9.51 µM and the GI50 [47] was 1.23 µM. The TGI [47] was > 25 µM, the GI50 [48] was 4.68 µM and the TGI [48] was > 25 µM. For the same molecule, the GI50 [49] was 19.4 µM, the TGI [49] was > 25 µM and the TGI [50] was > 25 µM. The GI50 [51] was 5.74 µM, the TGI [51] was > 23.2 µM and the GI50 [52] was 5.82 µM. The TGI [52] was > 18.9 µM, the GI50 [53] was 3.95 µM and the TGI [53] was 17.9 µM. For the same molecule, the GI50 [54] was 1.35 µM, the TGI [54] was 9.93 µM and the GI50 [55] was 7.72 µM. The TGI [55] was > 25 µM, the GI50 [56] was 6.22 µM and the TGI [56] was 19.7 µM. It also gave a GI50 [57] of 3.97 µM, a TGI [57] of 9.12 µM and a GI50 [58] of 0.581 µM. For the same molecule, the TGI [58] was > 25 µM.
